Measured values published in patent US7749985B2, “Acyloxyalkyl carbamate prodrugs, methods of synthesis and use” (XenoPort, Inc., priority 2006, dated 2010).

How the values were obtained:
[1] = animal models (Merino et al., Biopharm. Drug. Disp. 1989); cited from earlier work
[2] = pH-Dependent Stability of prodrugs in aqueous buffers; format: physicochemical; conditions: pH 2 to pH 8, 37° C.
Protocol: (§1) The stabilities of prodrugs were evaluated in one or more in vitro systems using a variety of tissue preparations following methods known in the art. The chemical stability of prodrugs in aqueous buffers at a pH of 2.0, 7.4, and 8.0 were also measured. Tissues were obtained from commercial sources (e.g., Pel-Freez Biologicals, Rogers, Ark., or GenTest Corporation, Woburn, Mass.). Experimental conditions used for the in vitro studies are described in Table 1. Each preparation was incubated with test compound at 37° C. for one hour. Aliquots (50 μL) were removed at 0, 30, and 60 min and quenched with 0.1% trifluoroacetic acid in acetonitrile. Samples were then centrifuged and analyzed by LC/MS/MS. Stability of prodrugs towards specific enzymes (e.g., peptidases, etc.) was also assessed in vitro by incubation with the purified enzyme.
pH-Dependent Stability: The long-term pH-dependent stability of tranexamic acid prodrug at 37° C. was measured by LC/MS/MS at five different representative pH values from pH 2.0 to pH 8.0 was determined. The test concentration was 5 μM. The amount of remaining prodrug and the amount of tranexamic acid released from the prodrug was determined at 0 hour and after 24 hours.

[3] = Enzymatic cleavage of prodrugs in vitro (tissue preparations of Table 1); format: in vitro ADME; conditions: in the presence of the tissue preparations, 37° C.
Protocol: as §1
Pancreatin Stability: Stability studies were conducted by incubating prodrug (5 μM) with 1% (w/v) pancreatin (Sigma, P-1625, from porcine pancreas) in 0.025 M Tris buffer containing 0.5 M NaCl (pH 7.5) at 37° C. for 60 min. The reaction was stopped by addition of 2 volumes of methanol. After centrifugation at 14,000 rpm for 10 min, the supernatant was removed and analyzed by LC/MS/MS.
Caco-2 Homogenate S9 Stability: Caco-2 cells were grown for 21 days prior to harvesting. Culture medium was removed and cell monolayers were rinsed and scraped off into ice-cold 10 mM sodium phosphate/0.15 M potassium chloride, pH 7.4. Cells were lysed by sonication at 4° C. using a probe sonicator. Lysed cells were then transferred into 1.5 mL centrifuge vials and centrifuged at 9,000 g for 20 min at 4° C. The resulting supernatant (Caco-2 cell homogenate S9 fraction) was aliquoted into 0.5 mL vials and stored at −80° C. until used.
For stability studies, prodrug (5 μM) was incubated in Caco-2 homogenate S9 fraction (0.5 mg protein per mL) for 60 min at 37° C. Concentrations of intact prodrug and released tranexamic acid were determined at zero time and 60 min using LC/MS/MS.

Row | SMILES | absorption following administration into the colon [1] | stability from pH 2 to pH 8 [2] | hydrolysis to release the corresponding 3-aminopropylphosphinic acid analog [3]
1 | NCC(CC(=O)O)c1ccc(Cl)cc1 (racemic) [Baclofen, (±)-4-Amino-3-(4-chlorophenyl)butanoic acid] | poorly absorbed |  | 
2 | CCCCP(=O)(O)CCCNC(=O)OC(OC(=O)C(C)C)C(C)C (centres unmarked) [39/40, 3-{[1-isobutanoyloxyisobutoxy]carbonylamino}propyl(n-butyl)phosphinic acid] |  | good stability | hydrolyzed to release the corresponding 3-aminopropylphosphinic acid analogs
3 | CCCCP(=O)(O)CCCNC(=O)OC(C)OC(=O)C(C)C (centres unmarked) [Compound 31, 3-{[1-Isobutanoyloxyethoxy]carbonylamino}propyl(n-butyl)phosphinic Acid] |  | good stability | hydrolyzed to release the corresponding 3-aminopropylphosphinic acid analogs
4 | CCCCP(=O)(O)CCCNC(=O)OCOC(=O)C(C)C [Compound 35, 3-{[Isobutanoyloxymethoxy]carbonylamino}propyl(n-butyl)phosphinic Acid] |  | good stability | hydrolyzed to release the corresponding 3-aminopropylphosphinic acid analogs
5 | CCCCP(=O)(O)CCCNC(=O)OC(C)OC(=O)c1ccccc1 (centres unmarked) [Compound 211, 3-{[1-Benzoyloxyethoxy]carbonylamino}propyl(n-butyl)phosphinic Acid] |  | good stability | hydrolyzed to release the corresponding 3-aminopropylphosphinic acid analogs
6 | CCCCP(=O)(O)CCCNC(=O)OCOC(=O)c1ccccc1 [Compound 212, 3-{[1-Benzoyloxymethoxy]carbonylamino}propyl(n-butyl)phosphinic Acid] |  | good stability | hydrolyzed to release the corresponding 3-aminopropylphosphinic acid analogs
